According to ChEMBL document CHEMBL5120971, “Network Pharmacology Research and Dual-omic Analyses Reveal the Molecular Mechanism of Natural Product Nodosin Inhibiting Muscle-Invasive Bladder Cancer in Vitro and in Vivo” (J Nat Prod, 2022):
Activity calls are given as the source filed them. No cut-off for these calls is given here.

What was measured:
[1] = system: T-24; assay: Cytotoxicity against human T24 cells assessed as reduction in cell growth by CCK8 assay; type: functional, cell-based
[2] = system: UMUC3; assay: Cytotoxicity against human UMUC3 cells assessed as reduction in cell growth by CCK8 assay; type: functional, cell-based
[3] = system: SW780; assay: Cytotoxicity against human SW780 cells assessed as reduction in cell growth by CCK8 assay; type: functional, cell-based
[4] = system: UMUC3; assay: Cytotoxicity against human UMUC3 cells assessed as reduction in cell growth at 4 uM by CCK8 assay; type: functional, cell-based; conditions: time 24-72 hrs, TDE = time-dependent effect
[5] = system: T-24; assay: Induction of morphological changes in human T24 cells assessed as cytoplasmic condensation at 4 to 12 uM measured after 48 hrs by microscopy; type: functional, cell-based; conditions: dose 4-12 µM
[6] = system: T-24; assay: Effect on RNF169 expression in human T24 cells at 6 uM measured after 24 to 30 hrs by proteomic analysis; type: functional, cell-based; conditions: time 24-30 hrs
[7] = system: T-24; assay: Effect on CLSPN expression in human T24 cells at 6 uM measured after 24 to 30 hrs by proteomic analysis; type: functional, cell-based; conditions: time 24-30 hrs
[8] = system: T-24; assay: Effect on E2F6 expression in human T24 cells at 6 uM measured after 24 to 30 hrs by proteomic analysis; type: functional, cell-based; conditions: time 24-30 hrs
[9] = system: T-24; assay: Effect on PDCD2L expression in human T24 cells at 6 uM measured after 24 to 30 hrs by proteomic analysis; type: functional, cell-based; conditions: time 24-30 hrs
[10] = system: T-24; assay: Effect on DDB1 expression in human T24 cells at 6 uM measured after 24 to 30 hrs by proteomic analysis; type: functional, cell-based; conditions: time 24-30 hrs
[11] = system: T-24; assay: Effect on NBN expression in human T24 cells at 6 uM measured after 24 to 30 hrs by proteomic analysis; type: functional, cell-based; conditions: time 24-30 hrs
[12] = system: T-24; assay: Inhibition of DNA replication in human T24 cells at 4 to 10 uM measured after 24 hrs by EdU staining based fluorescence assay; type: functional, cell-based; conditions: dose 4-10 µM
[13] = system: T-24; assay: Induction of apoptosis in human T24 cells assessed as viable cells at 4 uM measured after 48 hrs by Annexin V-FITC/propidium iodide staining based flow cytometry (reference value: 97.49%); type: functional; conditions: read-out: Activity
[14] = system: T-24; assay: Induction of apoptosis in human T24 cells assessed as early apoptotic cells at 6 uM measured after 48 hrs by Annexin V-FITC/propidium iodide staining based flow cytometry (reference value: 1.2%); type: functional
[15] = system: T-24; assay: Induction of apoptosis in human T24 cells assessed as necrotic cells at 6 uM measured after 48 hrs by Annexin V-FITC/propidium iodide staining based flow cytometry (reference value: 0.57%); type: functional
[16] = system: T-24; assay: Induction of apoptosis in human T24 cells assessed as late apoptotic cells at 8 uM measured after 48 hrs by Annexin V-FITC/propidium iodide staining based flow cytometry (reference value: 0.74%); type: functional
[17] = system: T-24; assay: Induction of apoptosis in human T24 cells assessed as necrotic cells at 8 uM measured after 48 hrs by Annexin V-FITC/propidium iodide staining based flow cytometry (reference value: 0.57%); type: functional
[18] = system: T-24; assay: Up regulation of HMOX1 expression in human T24 cells at 6 uM measured after 24 to 30 hrs by proteomic analysis; type: functional, cell-based; conditions: time 24-30 hrs
[19] = system: T-24; assay: Induction of apoptosis in human T24 cells assessed as effect on ZFP36L1 expression at 6 uM measured after 24 to 30 hrs by proteomic analysis; type: functional, cell-based; conditions: time 24-30 hrs
[20] = system: T-24; assay: Induction of apoptosis in human T24 cells assessed as effect on RMDN3 expression at 6 uM measured after 24 to 30 hrs by proteomic analysis; type: functional, cell-based; conditions: time 24-30 hrs
[21] = system: T-24; assay: Induction of apoptosis in human T24 cells assessed as effect on ARL6IP1 expression at 6 uM measured after 24 to 30 hrs by proteomic analysis; type: functional, cell-based; conditions: time 24-30 hrs
[22] = system: T-24; assay: Induction of autophagy in human T24 cells assessed as effect on FLCN gene expression at 6 uM measured after 12 to 18 hrs by transcriptome analysis; type: functional, cell-based; conditions: time 12-18 hrs
[23] = system: T-24; assay: Induction of autophagy in human T24 cells assessed as effect on PRKAA2 gene expression at 6 uM measured after 12 to 18 hrs by transcriptome analysis; type: functional, cell-based; conditions: time 12-18 hrs
[24] = system: T-24; assay: Induction of autophagy in human T24 cells assessed as effect on RAB24 gene expression at 6 uM measured after 12 to 18 hrs by transcriptome analysis; type: functional, cell-based; conditions: time 12-18 hrs
[25] = system: T-24; assay: Induction of autophagy in human T24 cells assessed as effect on OPTN gene expression at 12 to 18 uM measured after 24 to 30 hrs by analysis; type: functional, cell-based; conditions: dose 12-18 µM, time 24-30 hrs
[26] = system: T-24; assay: Induction of autophagy in human T24 cells assessed as effect on WDR41 gene expression at 6 uM measured after 12 to 18 hrs by transcriptome analysis; type: functional, cell-based; conditions: time 12-18 hrs
[27] = system: T-24; assay: Induction of apoptosis in human T24 cells assessed as up regulation of SQSTM1 gene expression at 6 uM measured after 12 to 18 hrs by transcriptome analysis; type: functional, cell-based; conditions: time 12-18 hrs
[28] = system: T-24; assay: Induction of autophagy in human T24 cells assessed as up regulation of MAP1LC3B gene expression at 6 uM measured after 12 to 18 hrs by transcriptome analysis; type: functional, cell-based; conditions: time 12-18 hrs
[29] = system: T-24; assay: Induction of apoptosis in human T24 cells assessed as up regulation of HMOX1 expression at 6 to 12 uM measured after 24 to 30 hrs by Western blot analysis; type: functional, cell-based; conditions: dose 6-12 µM, time 24-30 hrs
[30] = system: T-24; assay: Induction of apoptosis in human T24 cells assessed as up regulation of SQSTM1 expression at 6 to 12 uM measured after 24 to 30 hrs by Western blot analysis; type: functional, cell-based; conditions: dose 6-12 µM, time 24-30 hrs
[31] = system: T-24; assay: Induction of cell membrane disruption in human T24 cells at 4 to 20 uM measured after 24 hrs by Dio/Hoechst 33342 staining based fluorescence assay; conditions: dose 4-20 µM
[32] = system: T-24; assay: Up regulation of AIFM2 gene expression in human T24 cells at 6 uM measured after 12 to 18 hrs by transcriptome analysis; type: functional, cell-based; conditions: time 12-18 hrs
[33] = system: T-24; assay: Up regulation of SLC7A11 expression in human T24 cells at 6 uM measured after 24 to 30 hrs by proteomic analysis; type: functional, cell-based; conditions: time 24-30 hrs
[34] = system: T-24; assay: Up regulation of AIFM2 expression in human T24 cells at 6 uM measured after 24 to 30 hrs by proteomic analysis; type: functional, cell-based; conditions: time 24-30 hrs
[35] = system: T-24; assay: Antimigratory activity against human T24 cells at 4 to 12 uM measured after 24 hrs by scratch test; type: functional, cell-based; conditions: dose 4-12 µM
[36] = system: T-24; assay: Antitumor activity against human T24 cells xenografted in BALB/c mouse assessed as reduction in tumor growth at 2 mg/kg, ip administered at 2 days interval; type: functional, organism-based
[37] = Toxicity in human T24 cells xenografted BALB/c mouse assessed as effect on body weight at 2 mg/kg, ip administered at 2 days interval; type: organism-based, T-24; conditions: in vivo, 48 h
[38] = system: T-24; assay: Antitumor activity against human T24 cells xenografted in BALB/c mouse assessed as reduction in Ki67 expression at 2 mg/kg, ip administered at 2 days interval by immunohistochemical analysis; type: functional, organism-based
[39] = system: T-24; assay: Antitumor activity against human T24 cells xenografted in BALB/c mouse assessed as increase in HMOX1expression at 2 mg/kg, ip administered at 2 days interval by immunohistochemical analysis; type: functional, organism-based

**Q.** For C=C1C(=O)[C@]23C[C@H]1C[C@@H](O)[C@H]2[C@@]12CO[C@@H](O)[C@@H]1C(C)(C)CC[C@@H]2OC3=O [NODOSIN], which IC50 [1] is on record?
**A.** Its IC50 is 4.91 µM.

**Q.** What about the Activity ([1]; DDE = dose-dependent effect) of the same compound?
**A.** Its Activity is “Dde”.

**Q.** What about the IC50 [2] of the same compound?
**A.** Its IC50 is 3.45 µM.

**Q.** And the Activity ([2]; DDE = dose-dependent effect)?
**A.** Its Activity is “Dde”.

**Q.** What about the IC50 [3] of the same compound?
**A.** Its IC50 is 9.99 µM.

**Q.** And the Activity ([3]; DDE = dose-dependent effect)?
**A.** Its Activity is “Dde”.

**Q.** What about the Activity [4] of the same compound?
**A.** The Activity was “Tde”.

**Q.** What about the Activity [5] of the same compound?
**A.** The Activity was “Active”.

**Q.** What about the Activity [6] of the same compound?
**A.** Its Activity is “Active”.

**Q.** What about the Activity [7] of the same compound?
**A.** Its Activity is “Active”.

**Q.** And the Activity [8]?
**A.** Its Activity is “Active”.

**Q.** And the Activity [9]?
**A.** The Activity was “Active”.

**Q.** What about the Activity [10] of the same compound?
**A.** The Activity was “Active”.

**Q.** What about the Activity [11] of the same compound?
**A.** The Activity was “Active”.

**Q.** What about the inhibition [12] of the same compound?
**A.** The inhibition was “Active”.

**Q.** And the viability at 4 µM [13]?
**A.** Its viability at 4 µM is 96.1%.

**Q.** What about the Activity [14] of the same compound?
**A.** Its Activity is 10.74%.

**Q.** And the Activity [15]?
**A.** The Activity was 0.4%.

**Q.** And the Activity [16]?
**A.** The Activity was 13.17%.

**Q.** And the Activity [17]?
**A.** Its Activity is 0.35%.

**Q.** What about the Activity [18] of the same compound?
**A.** Its Activity is “Active”.

**Q.** And the Activity [19]?
**A.** The Activity was “Active”.

**Q.** And the Activity [20]?
**A.** Its Activity is “Active”.

**Q.** And the Activity [21]?
**A.** The Activity was “Active”.

**Q.** What about the Activity [22] of the same compound?
**A.** The Activity was “Active”.

**Q.** And the Activity [23]?
**A.** The Activity was “Active”.

**Q.** What about the Activity [24] of the same compound?
**A.** The Activity was “Active”.

**Q.** What about the Activity [25] of the same compound?
**A.** The Activity was “Active”.

**Q.** And the Activity [26]?
**A.** Its Activity is “Active”.

**Q.** What about the Activity [27] of the same compound?
**A.** Its Activity is “Active”.

**Q.** What about the Activity [28] of the same compound?
**A.** Its Activity is “Active”.

**Q.** And the Activity [29]?
**A.** The Activity was “Active”.

**Q.** What about the Activity [30] of the same compound?
**A.** The Activity was “Active”.

**Q.** And the Activity [31]?
**A.** Its Activity is “Active”.

**Q.** And the Activity [32]?
**A.** Its Activity is “Active”.

**Q.** And the Activity [33]?
**A.** The Activity was “Active”.

**Q.** What about the Activity [34] of the same compound?
**A.** Its Activity is “Active”.

**Q.** And the Activity [35]?
**A.** The Activity was “Active”.

**Q.** What about the Activity [36] of the same compound?
**A.** Its Activity is “Active”.

**Q.** What about the Activity [37] of the same compound?
**A.** The Activity was “Non-Toxic”.

**Q.** And the Activity [38]?
**A.** The Activity was “Active”.

**Q.** And the Activity [39]?
**A.** The Activity was “Active”.
